For this assay, the target named is T1, ERR1 (also known as ERR-α or ERR-1) (Homo sapiens, UniProt P11474).
T1 construct: the ^6His-tagged-ERR1 LBD
T1 sequence (P11474 193-421 limits assumed): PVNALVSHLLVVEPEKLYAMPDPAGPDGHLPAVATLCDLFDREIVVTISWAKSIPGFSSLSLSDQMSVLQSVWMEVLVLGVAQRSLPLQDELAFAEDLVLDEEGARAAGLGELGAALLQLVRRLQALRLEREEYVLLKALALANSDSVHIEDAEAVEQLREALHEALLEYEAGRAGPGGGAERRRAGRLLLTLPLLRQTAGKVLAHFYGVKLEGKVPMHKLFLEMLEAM
Briefly: TR-FRET assay: disruption of co-activator peptide binding to ERR1 LBD. To be noted: 6His-tagged ERR1 LBD 6 nM, GST-SRC-2 peptide 6 nM, 25° C., 4-18 hours; average of 3 independent experiments. The assay is classed as biochemical. A digest of the protocol: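 The 6His-ERR1 LBD and a GST-hSRC2 co-activator peptide were detected by α-GST Eu cryptate and α-6His-XL665 TR-FRET. Buffer was 25 mM Tris pH 8, 2.5 mM Hepes, 20 mM KCl, 1 mM DTT, 0.05 mg/mL BSA, equilibrated 4-18 h at 25° C. Dose-response curves were fitted hyperbolically and averaged over 3 independent experiments.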
Background: Time-resolved FRET reads energy transfer from a long-lived donor to a nearby acceptor.

Among the data in patent US8580832B2, “Substituted phenoxy aminothiazolones as estrogen related receptor-α modulators” (Janssen Pharmaceutica N.V., priority 2007, dated 2013) are EC50 values, retold here.

Compound `COc1cc(/C=C2\SC(NCCn3cncn3)=NC2=O)ccc1Oc1ccc(C#N)cc1C(F)(F)F` [Example 72, 4-{2-Methoxy-4-[4-oxo-2-(2-[1,2,4]triazol-1-yl-ethylamino)-4H-thiazol-5-ylidenemethyl]-phenoxy}-3-trifluoromethyl-benzonitrile] yielded an EC50 of 16 nM. Take `COc1cc(/C=C2\SC(NCCN3CCCC3=O)=NC2=O)ccc1Oc1ccc(Cl)cc1C(F)(F)F` [Example 60, 5-[4-(4-Chloro-2-trifluoromethyl-phenoxy)-3-methoxy-benzylidene]-2-[2-(2-oxo-pyrrolidin-1-yl)-ethylamino]-thiazol-4-one]: the EC50 is 4 nM. Regarding `COc1cc(/C=C2\SC(N(CCO)CCO)=NC2=O)ccc1Oc1ccc(C#N)cc1C(F)(F)F` [Compound 12, 4-(4-{2-[Bis-(2-hydroxy-ethyl)-amino]-4-oxo-4H-thiazol-5-ylidenemethyl}-2-methoxy-phenoxy)-3-trifluoromethyl-benzonitrile], the EC50 stood at 25 nM.

As for `COc1cc(/C=C2\SC(NCc3nnn[nH]3)=NC2=O)ccc1Oc1ccc(C#N)cc1C(F)(F)F` [Example 107, 4-(2-Methoxy-4-{4-oxo-2-[(1H-tetrazol-5-ylmethyl)-amino]-4H-thiazol-5-ylidenemethyl}-phenoxy)-3-trifluoromethyl-benzonitrile], the 50% effective concentration (EC50) stood at 5 nM.

Regarding `CN1CCN(C2=NC(=O)/C(=C/c3ccc(Oc4ccc(C#N)cc4C(F)(F)F)c(F)c3)S2)CC1` [Compound 8, 4-{2-Fluoro-4-[2-(4-methyl-piperazin-1-yl)-4-oxo-4H-thiazol-5-ylidenemethyl]-phenoxy}-3-trifluoromethyl-benzonitrile], the concentration for a half-maximal effect (EC50) was 14 nM. Under `COc1cc(/C=C2\SC(NCCN3CCCC3=O)=NC2=O)ccc1Oc1ccc(C#N)cc1C(F)(F)F` [Example 36, 4-(2-Methoxy-4-{4-oxo-2-[2-(2-oxo-pyrrolidin-1-yl)-ethylamino]-4H-thiazol-5-ylidenemethyl}-phenoxy)-3-trifluoromethyl-benzonitrile] stands 8 nM.

`COC(=O)c1ccc(Oc2ccc(/C=C3\SC(N4CCCC(O)C4)=NC3=O)cc2OC)c(C(F)(F)F)c1` (centres unmarked) [Example 53, 4-{4-[2-(3-Hydroxy-piperidin-1-yl)-4-oxo-4H-thiazol-5-ylidenemethyl]-2-methoxy-phenoxy}-3-trifluoromethyl-benzoic acid methyl ester] registered an EC50 of 42 nM. Next, `CCS(=O)(=O)N1CCN(C2=NC(=O)/C(=C/c3ccc(Oc4ccc(C#N)cc4C(F)(F)F)c(F)c3)S2)CC1` [Example 44, 4-{4-[2-(4-Ethanesulfonyl-piperazin-1-yl)-4-oxo-4H-thiazol-5-ylidenemethyl]-2-fluoro-phenoxy}-3-trifluoromethyl-benzonitrile]: 68 nM; `COc1cc(/C=C2\SC(NCCF)=NC2=O)ccc1Oc1ccc(C#N)cc1C(F)(F)F` [Example 91, 4-{4-[2-(2-Fluoro-ethylamino)-4-oxo-4H-thiazol-5-ylidenemethyl]-2-methoxy-phenoxy}-3-trifluoromethyl-benzonitrile]: 9 nM; `COc1cc(/C=C2\SC(NCCN3CCCCC3)=NC2=O)ccc1Oc1ccc(C#N)cc1C(F)(F)F` [Compound 25, 4-{2-Methoxy-4-[4-oxo-2-(2-piperidin-1-yl-ethylamino)-4H-thiazol-5-ylidenemethyl]-phenoxy}-3-trifluoromethyl-benzonitrile]: 18 nM. As to `COc1cc(/C=C2\SC(N(C)CCN(C)C)=NC2=O)ccc1Oc1ccc(C#N)cc1C(F)(F)F` [Compound 11, 4-(4-{2-[(2-Dimethylamino-ethyl)-methyl-amino]-4-oxo-4H-thiazol-5-ylidenemethyl}-2-methoxy-phenoxy)-3-trifluoromethyl-benzonitrile], the half-maximal effective concentration (EC50) was found to be 19 nM. In the case of `CN(CC(O)CO)C1=NC(=O)/C(=C/c2ccc(Oc3ccc(C#N)cc3C(F)(F)F)c(F)c2)S1` (centres unmarked) [Example 50, 4-(4-{2-[(2,3-Dihydroxy-propyl)-methyl-amino]-4-oxo-4H-thiazol-5-ylidenemethyl}-2-fluoro-phenoxy)-3-trifluoromethyl-benzonitrile], the EC50 is 12 nM. `N#Cc1ccc(Oc2ccc(/C=C3\SC(NCCn4cncn4)=NC3=O)cc2F)c(C(F)(F)F)c1` [Example 98, 4-{2-Fluoro-4-[4-oxo-2-(2-[1,2,4]triazol-1-yl-ethylamino)-4H-thiazol-5-ylidenemethyl]-phenoxy}-3-trifluoromethyl-benzonitrile] registered an EC50 of 17 nM. Next, `COc1cc(/C=C2\SC(N3CCC(N(C)C)CC3)=NC2=O)ccc1Oc1ccc(C#N)cc1C(F)(F)F` [Example 86, 4-{4-[2-(4-Dimethylamino-piperidin-1-yl)-4-oxo-4H-thiazol-5-ylidenemethyl]-2-methoxy-phenoxy}-3-trifluoromethyl-benzonitrile]: 10 nM; `COC(=O)c1ccc(Oc2ccc(/C=C3\SC(N4CCNC(=O)C4)=NC3=O)cc2OC)c(C(F)(F)F)c1` [Example 54, 4-{2-Methoxy-4-[4-oxo-2-(3-oxo-piperazin-1-yl)-4H-thiazol-5-ylidenemethyl]-phenoxy}-3-trifluoromethyl-benzoic acid methyl ester]: 74 nM. Under `COc1cc(/C=C2\SC(N3CCN(C)C(=O)C3)=NC2=O)ccc1Oc1ccc(C#N)cc1C(F)(F)F` [Example 94, 4-{2-Methoxy-4-[2-(4-methyl-3-oxo-piperazin-1-yl)-4-oxo-4H-thiazol-5-ylidenemethyl]-phenoxy}-3-trifluoromethyl-benzonitrile] stands 8 nM. For `COc1cc(/C=C2\SC(NCCCN3CCNC(=O)C3)=NC2=O)ccc1Oc1ccc(C#N)cc1C(F)(F)F` [Example 101, 4-(2-Methoxy-4-{4-oxo-2-[3-(3-oxo-piperazin-1-yl)-propylamino]-4H-thiazol-5-ylidenemethyl}-phenoxy)-3-trifluoromethyl-benzonitrile], it took 11 nM to reach a half-maximal effect (EC50).

`CCS(=O)(=O)N1CCN(C2=NC(=O)/C(=C/c3ccc(Oc4ccc(C#N)cc4C(F)(F)F)c(OC)c3)S2)CC1` [Example 38, 4-{4-[2-(4-Ethanesulfonyl-piperazin-1-yl)-4-oxo-4H-thiazol-5-ylidenemethyl]-2-methoxy-phenoxy}-3-trifluoromethyl-benzonitrile] gave an EC50 of 9 nM.

On to `N#Cc1ccc(Oc2ccc(/C=C3\SC(N4CC(C(=O)O)C4)=NC3=O)cc2F)c(C(F)(F)F)c1` [Example 116, 1-{5-[4-(4-Cyano-2-trifluoromethyl-phenoxy)-3-fluoro-benzylidene]-4-oxo-4,5-dihydro-thiazol-2-yl}-azetidine-3-carboxylic acid], for which the EC50 came out at 34 nM. Next, `COc1cc(/C=C2\SC(NCC(O)CN)=NC2=O)ccc1Oc1ccc(C#N)cc1C(F)(F)F` (centres unmarked) [Example 95, 4-{4-[2-(3-Amino-2-hydroxy-propylamino)-4-oxo-4H-thiazol-5-ylidenemethyl]-2-methoxy-phenoxy}-3-trifluoromethyl-benzonitrile]: 89 nM.

With `CN1CCN(CCNC2=NC(=O)/C(=C/c3ccc(Oc4ccc(C#N)cc4C(F)(F)F)c(F)c3)S2)CC1` [Example 104, 4-(2-Fluoro-4-{2-[2-(4-methyl-piperazin-1-yl)-ethylamino]-4-oxo-4H-thiazol-5-ylidenemethyl}-phenoxy)-3-trifluoromethyl-benzonitrile], the midpoint of the response, the EC50, lay at 22 nM.

`COc1cc(/C=C2\SC(NCCNC(C)=O)=NC2=O)ccc1Oc1ccc(C#N)cc1C(F)(F)F` [Example 71, N-(2-{5-[4-(4-Cyano-2-trifluoromethyl-phenoxy)-3-methoxy-benzylidene]-4-oxo-4,5-dihydro-thiazol-2-ylamino}-ethyl)-acetamide] showed a half-maximal effective concentration (EC50) of 13 nM. Next, `COc1cc(/C=C2\SC(NC3CC3)=NC2=O)ccc1Oc1ccc(C#N)cc1C(F)(F)F` [Compound 9, 4-[4-(2-Cyclopropylamino-4-oxo-4H-thiazol-5-ylidenemethyl)-2-methoxy-phenoxy]-3-trifluoromethyl-benzonitrile]: 15 nM.

The EC50 is the concentration at which the effect is half-maximal. Read a high EC50 as a less potent agent.
